Assay results: patent US20170368082A1, “FORMULATIONS OF BRINCIDOFOVIR” (priority 2016, published 2017)
≈ marks a conversion by molar mass, not a printed value. Read-outs that look alike come from different tables or passages of the source.

Legend:
[1] = Brincidofovir equilibrium solubility in formulation vehicles; type: physicochemical
Method: The recovery of brincidofovir in the sample supernatant was determined at different time points to establish when the solubility equilibrium was reached. Two samples of vehicle #57, were saturated with brincidofovir. […] Consequently, the pH had to be brought up close to the target pH before more brincidofovir was added.

[2] = Sterilization filter compatibility; type: physicochemical
Method: Formulations of the disclosure were evaluated for sterilization filter compatibility. Aliquots of a testing brincidofovir formulation were filtered through the corresponding syringe filters as follows:
A: Filter: 0.2 μm, 25 mm, syringe filter, Supor® membrane (PES), sterile; testing solution: 10 mg/mL brincidofovir, 200 mM sodium phosphate, pH=8.0; testing volume: 10 mL. B: Filter: 0.2 μm, 25 mm, syringe filter, Posidyne® membrane, sterile; testing solution: 10 mg/mL brincidofovir, 200 mM sodium phosphate, pH=8.0; testing volume: 10 mL. C: Filter: 0.22 μm, 33 mm, syringe filter, Durapore® PVDF membrane, γ-irradiated; testing solution: […] brincidofovir, 4 mM sodium phosphate, pH-8, approx. 5% dextrose (50× dilution of 10 mg/mL brincidofovir, 200 mM sodium phosphate, pH=8.0 with 5% dextrose solution; testing volume: 50 mL.
The first and last 10% of the filtrate were collected. Samples of the collected filtrates, along with samples of the pre filtration formulation, were assessed for their appearance, pH, and c(BCV).

[3] = Maximum tolerated dose study, single 2-hour IV infusion (Phase 1); type: in vivo, Sprague-Dawley CD rats
Method: For Phase 1, Sprague-Dawley CD® rats (2/sex/dosing interval) were dosed with brincidofovir via 2-hour IV infusion once at 2, 4, 10 or 15 mg/kg. The maximum feasible dose (MFD) was limited to 15 mg/kg because of increased hemolytic potential when the concentration of brincidofovir exceeds 1 mg/mL in the dosing solution. The dose volume was 10 mL/kg/hr for all dosing intervals. Each dose administration was followed by a 2-3 day observation period. At the end of the Phase 1 treatment period, all animals were euthanized and discarded without macroscopic examination.
For Phase 1 (MTD), up to four dose levels of brincidofovir were administered as escalating single doses in naïve male and female rats via intravenous infusion (2-hour). Each dose administration was followed by a 2-3 day observation period. Each subsequent dose level was increased and administered to naïve animals based on the response to the preceding doses until the maximum tolerated dose (MTD) was identified, or until the maximum feasible dose (MFD) based on prior evidence of hemolysis of 15 mg/kg was achieved.
During Phase 1, each animal received a single dose administered via intravenous infusion (2-hours), followed by a 2-3 day observation period after each dose interval. Following the single intravenous (2-hour) infusion, the animals had their jackets and dosing sets removed and were not returned to saline maintenance.
For dose observations, Phase 1: Signs of poor health or toxic or pharmacologic effects (e.g., abnormalities in general condition, appearance, activity, behavior, respiration, etc.) observed during infusion period were recorded.

[4] = Comparison of toxicity of orally and intravenously administered brincidofovir (rat intestine); type: in vivo; conditions: for AUC / Cmax: rat, in vivo; for AUC: read-out: Exposure AUC; for Cmax: read-out: Exposure Cmax
Excerpt: As shown in the figures, IV administration of brincidofovir is more well-tolerated in the intestine.

[5] = IV BCV single ascending dose study: plasma BCV and CDV PK; type: in vivo, human; conditions: for Tmax / clearance / half-life / AUC(0-inf) / Cmax / Vd: human; for Tmax: intravenous; for clearance / half-life / AUC(0-inf) / Cmax / Vd: plasma; for Vd: read-out: Vss
Method: Plasma PK samples were collected over 7 days and assayed by HPLC-MS. Plasma BCV PK parameters were determined by non-compartmental analysis and dose proportionality was assessed. Safety assessments were collected over 14 days.

[6] = PES filter membrane, first 10% filtrate volume
[7] = PES filter membrane, last 10% filtrate volume
[8] = PES filter membrane, pre filtration
[9] = PVDF filter membrane, first 10% filtrate volume
[10] = PVDF filter membrane, last 10% filtrate volume
[11] = PVDF filter membrane, pre filtration
[12] = Posidyne filter membrane, first 10% filtrate volume
[13] = Posidyne filter membrane, last 10% filtrate volume
[14] = Posidyne filter membrane, pre filtration
[15] = Sprague-Dawley CD, IV, repeat dose 1 mg/kg
[16] = Sprague-Dawley CD, IV, repeat dose 4 mg/kg
[17] = Sprague-Dawley CD, IV, repeat dose 15 mg/kg
[18] = iv, 10 mg, plasma BCV, Cohort 1, BCV 10 mg 2 h IV infusion, n = 6
[19] = iv, 25 mg, plasma BCV, Cohort 2, BCV 25 mg 2 h IV infusion, n = 6
[20] = iv, 50 mg, plasma BCV, Cohort 3, BCV 50 mg 2 h IV infusion, n = 9
[21] = iv, 50 mg, plasma BCV, Cohort 4, BCV 50 mg 4 h IV infusion, n = 9

## CCCCCCCCCCCCCCCCOCCCOP(=O)(O)CO[C@H](CO)Cn1ccc(N)nc1=O [Brincidofovir]
[1]; pH 6.9, thermodynamic from solid
  solubility thermodynamic: ~25 mg/mL (≈ 44.5 mM)
[1]; pH 8, thermodynamic from solid
  solubility thermodynamic: > 270 mg/mL
[2]; [6]
  Appearance: Clear,
  Measured pH: 8.0
  Observed c(BCV): 9.8 mg/mL
[2]; [7]
  Appearance: Clear,
  Measured pH: 8.0
  Observed c(BCV): 9.8 mg/mL
[2]; [8]
  Appearance: Clear,
  Measured pH: 8.1
  Observed c(BCV): 9.9 mg/mL
[2]; [9]
  Appearance: Clear,
  Measured pH: 8.1
  Observed c(BCV): 0.20 mg/mL
[2]; [10]
  Appearance: Clear,
  Measured pH: 8.1
  Observed c(BCV): 0.20 mg/mL
[2]; [11]
  Appearance: Clear,
  Measured pH: 8.0
  Observed c(BCV): 0.20 mg/mL
[2]; [12]
  Appearance: Clear,
  Measured pH: 8.0
  Observed c(BCV): 9.7 mg/mL
[2]; [13]
  Appearance: Clear,
  Measured pH: 8.0
  Observed c(BCV): 9.8 mg/mL
[2]; [14]
  Appearance: Clear,
  Measured pH: 8.1
  Observed c(BCV): 9.9 mg/mL
[3]; 2, 4, 10 or 15 mg/kg
  Survival: survived until their scheduled euthanasia
[3]; 2, 4, 10 or 15 mg/kg single 2-hour IV infusion
  Tolerability: all doses were well tolerated
[3]; Dose 1 (2 mg/kg), both males
  Clinical signs: rapid breath and hunched posture, with and without piloerection, partially closed eyes, and decreased activity
[3]; Dose 2 (4 mg/kg), both males and one female
  Clinical signs: irregular breathing
[3]; Dose 3 (10 mg/kg)
  Clinical signs: No clinical signs were observed
[3]; Dose 4 (15 mg/kg), both males and one female
  Clinical signs: decreased activity with or without irregular breathing, piloerection, and bilateral partially closed eyes
[3]; single 2-hour IV infusion
  Maximum feasible dose (MFD): 15 mg/kg
[4]; IV administration
  Intestinal finding: minimal single-cell effects
[4]; IV, repeat dose 1 mg/kg
  Preliminary Findings: No GI findings
[4]; [15]
  AUC: 410 ng·h/mL
  Cmax: 298 ng/mL
[4]; [16]
  AUC: 2760 ng·h/mL
  Cmax: 1200 ng/mL
[4]; [17]
  AUC: 9890 ng·h/mL
  Cmax: 4500 ng/mL
[4]; oral administration
  Intestinal finding: significant loss of epithelium in intestinal villi
[4]; oral, single dose 100 mg/kg
  mortality: 38% mortality
  AUC: 13600 ng·h/mL
  Cmax: 1090 ng/mL
[4]; oral, single dose 300 mg/kg
  mortality: 100% mortality
  AUC: 20500 ng·h/mL
  Cmax: 1190 ng/mL
[4]; oral, single dose 30 mg/kg
  AUC: 5560 ng·h/mL
  Cmax: 426 ng/mL
[4]; oral, single dose 1000 mg/kg
  AUC: 26400 ng·h/mL
  Cmax: 1380 ng/mL
[5]; BCV IV 50 mg
  Geometric mean plasma BCV AUC∞ relative to oral 100 mg tablets: 4.5 fold
[5]; IV single ascending dose
  Plasma BCV Cmax and AUCs vs dose: increased in proportion to dose
[5]; 50 mg, plasma BCV, 4-hour infusion (Cohort 4)
  Tmax: 2.5 to 4 h
[5]; plasma BCV, Cohorts 1-3 (2-hour infusion)
  Tmax: 2 h
[5]; [18]
  clearance: 127 mL/min
  half-life: 3.42 h
  Vd: 16.4 L
[5]; iv, 10 mg, plasma BCV, Cohort 1, BCV 10 mg 2 h IV infusion, n = 6, geometric mean, read-out: AUC∞
  AUC(0-inf): 1310 ng·h/mL
[5]; iv, 10 mg, plasma BCV, Cohort 1, BCV 10 mg 2 h IV infusion, n = 6, geometric mean, read-out: Cmax
  Cmax: 613 ng/mL
[5]; [19]
  clearance: 144 mL/min
  half-life: 5.89 h
  Vd: 19.8 L
[5]; iv, 25 mg, plasma BCV, Cohort 2, BCV 25 mg 2 h IV infusion, n = 6, geometric mean, read-out: AUC∞
  AUC(0-inf): 2890 ng·h/mL
[5]; iv, 25 mg, plasma BCV, Cohort 2, BCV 25 mg 2 h IV infusion, n = 6, geometric mean, read-out: Cmax
  Cmax: 1410 ng/mL
[5]; [20]
  clearance: 140 mL/min
  half-life: 6.54 h
  Vd: 19.5 L
[5]; iv, 50 mg, plasma BCV, Cohort 3, BCV 50 mg 2 h IV infusion, n = 9, geometric mean, read-out: AUC∞
  AUC(0-inf): 5950 ng·h/mL
[5]; iv, 50 mg, plasma BCV, Cohort 3, BCV 50 mg 2 h IV infusion, n = 9, geometric mean, read-out: Cmax
  Cmax: 2950 ng/mL
[5]; [21]
  clearance: 127 mL/min
  half-life: 5.1 h
  Vd: 10.8 L
[5]; iv, 50 mg, plasma BCV, Cohort 4, BCV 50 mg 4 h IV infusion, n = 9, geometric mean, read-out: AUC∞
  AUC(0-inf): 6570 ng·h/mL
[5]; iv, 50 mg, plasma BCV, Cohort 4, BCV 50 mg 4 h IV infusion, n = 9, geometric mean, read-out: Cmax
  Cmax: 1590 ng/mL
[5]; po, 100 mg, BCV oral 100 mg tablets, read-out: Plasma BCV AUC∞
  AUC(0-inf): 1390 ng·h/mL
[5]; po, 100 mg, BCV oral 100 mg tablets, read-out: Plasma BCV Cmax
  Cmax: 251 ng/mL
